Read-outs that look alike come from different tables or passages of the source.
Target: T1, E. coli DdlB enzyme (D-alanine:D-alanine ligase) (Escherichia coli, UniProt P07862)
T1 construct: made in house; host or cells: E. coli
Test: biochemical
Details: for remaining activity at 2700 µM: tested concentration 2.7 mM; for remaining activity at 1800 µM: tested concentration 1.8 mM; for remaining activity at 1900 µM: tested concentration 1.9 mM; for remaining activity at 2300 µM: tested concentration 2.3 mM; for remaining activity at 2000 µM: tested concentration 2.0 mM; for remaining activity at 2400 µM: tested concentration 2.4 mM; for remaining activity at 2100 µM: tested concentration 2.1 mM; for remaining activity at 2800 µM: tested concentration 2.8 mM
Procedure: The fragment library was assayed in a DdlB inhibition assay, where fragments were tested for their ability to inhibit the D-Ala-adding activity of DdlB ligase. The orthophosphate formed during the enzymatic reaction was measured spectrophotometrically using malachite green reagent.
A recombinant E. coli DdlB enzyme (D-alanine:D-alanine ligase) was expressed in E. coli[11]. […] The final DMSO concentration was 5%. […] All experiments were performed in duplicates. […] IC50 values were determined by measuring the residual activities in quadruplicate at seven different compound concentrations and calculated using in GraphPad Prism (GraphPad Software, San Diego, CA, USA).

[1] = residual activity, read-out: DdlB RA
[2] = residual activity of DdlB, fragment library screening, tested concentration 2.5 mM, read-out: DdlB RA
[3] = fragment library screening, read-out: DdlB RA

O=C(O)c1ccccc1-c1ncc[nH]1 [Compound 8019-7907]
remaining activity at 2700 µM (read-out: DdlB RA): 102%

O=C(C1CCC1)N1CCC(F)(C(=O)N2CCCC2)CC1 [Compound T502-1244]
remaining activity at 1800 µM [1]: 97%

O=C(O)c1cc2nccc(-c3cccs3)n2n1 [Compound 18, 7-(Thiophen-2-yl)pyrazolo[1,5-a]pyrimidine-2-carboxylic acid]
remaining activity at 1500 µM (at 1.5 mM, read-out: DdlB inhibition, RA (Residual Activity)): 87% | remaining activity at 5000 µM (at 5 mM, read-out: DdlB inhibition, RA (Residual Activity)): 69%

O=S(=O)(O)c1nnc(-c2ccncc2)[nH]1 [Compound 8020-6014]
remaining activity at 2200 µM (tested concentration 2.2 mM, read-out: DdlB RA): 80%

Nc1ncccc1C(=O)O [FLD088]
remaining activity at 2500 µM (read-out: DdlB RA): 98%

Cc1cc(C)n(CO)n1 [FLD195]
remaining activity at 2500 µM [2]: 97%

C[C@H](NC(=O)[C@H](C)n1nnc2ccccc2c1=O)C(=O)O [Compound Y040-2749]
remaining activity at 1700 µM (fragment library screening, tested concentration 1.7 mM, read-out: DdlB RA): 92%

CCn1c(C(=O)N2CCC(C(=O)O)CC2)cc2occc21 [FF01-0413]
remaining activity at 1900 µM [1]: 110%

CCS(=O)(=O)N1CCCc2cc(NC(C)=O)ccc21 [Compound G504-0524]
remaining activity at 1800 µM [1]: 95%

N#Cc1nc[nH]c1C#N [FLD004]
remaining activity at 2500 µM (read-out: DdlB RA): 100%

O=C(O)CCCC1C(=O)Nc2ccccc21 (centres unmarked) [Compound 8020-0144]
remaining activity at 2300 µM (read-out: DdlB RA): 93%

CC(=O)NC1CCC(=O)CC1 [FLD101]
remaining activity at 2500 µM [2]: 98%

CCn1cnnc1-c1nn(C)c2c1CNCC2 [Compound S565-0571]
remaining activity at 2000 µM (read-out: DdlB RA): 89%

Nc1ncccn1 [FLD133]
remaining activity at 2500 µM [2]: 102%

CC1(C)CC(n2nc(O)cc2N)CCO1 (centres unmarked) [Compound 8013-3639]
remaining activity at 2400 µM (read-out: DdlB RA): 101%

Cc1ccc2cc(CCC(=O)O)c(O)nc2c1 [Compound P207-8939]
remaining activity at 2600 µM (tested concentration 2.6 mM, read-out: DdlB RA): 93%

O=[N+]([O-])c1ccc(Cl)nc1 [FLD142]
remaining activity at 2500 µM [2]: 92%

COc1c(C)[nH]ccc1=O [FLD135]
remaining activity at 2500 µM [2]: 96%

O=C1CCC2(CNC(=O)C3CCOCC3)CCCC=C2N1 (centres unmarked) [Compound S570-0163]
remaining activity at 2100 µM [1]: 94%

O=C(O)C1CCN(c2ccc(C(F)(F)F)cn2)CC1 [FF30-0262]
remaining activity at 1800 µM [3]: 92%

O=C(O)CC1(CC(=O)Nc2cccnc2)CCCC1 [Compound 8016-0695]
remaining activity at 1900 µM [3]: 93%

Cc1cc(C)cc(NC(=O)N(C)CC2CCOC2)c1 (centres unmarked) [Compound S213-1693]
remaining activity at 2100 µM [1]: 96%

Oc1nonc1N1CCOCC1 [Compound 8018-8552]
remaining activity at 2900 µM (tested concentration 2.9 mM, read-out: DdlB RA): 92%

Nc1cc(F)c(F)cc1C(=O)O [FLD047]
remaining activity at 2500 µM [2]: 92%

N#Cc1ccccc1OCC(=O)O [Compound C790-0277]
remaining activity at 2800 µM (read-out: DdlB RA): 96%

Nc1ncn[nH]1 [FLD103]
remaining activity at 2500 µM [2]: 95%

O=C(O)CCc1cccnc1 [FLD141]
remaining activity at 2500 µM [2]: 95%

O=C(O)c1[nH]c2ccc(F)cc2c1Br [Compound 8020-2406]
remaining activity at 1900 µM [1]: 89%

Oc1nnc(-c2ccccc2)c(-c2ccccc2)n1 [Compound 3039-0046]
remaining activity at 2000 µM [1]: 104%

CC(=O)N1CCC(CCc2noc(C)n2)C1 (centres unmarked) [SA67-1016]
remaining activity at 2700 µM (read-out: DdlB RA): 93%

CNc1ccccc1N [FLD179]
remaining activity at 2500 µM [2]: 84%

CCCNC(=O)N1CCC(F)(C(=O)NC2CC2)CC1 [Compound T502-0828]
remaining activity at 1800 µM [1]: 97%

O=C(O)Cc1nc(-c2cnccn2)n[nH]1 [Compound 8020-1590]
remaining activity at 2400 µM (read-out: DdlB RA): 102%

Cc1ccc(F)c(-n2cc(C(=O)O)nn2)c1 [Compound T640-0432]
remaining activity at 2300 µM (read-out: DdlB RA): 100%

CC(C)N1C(=O)C2(CCCC2)C1C(=O)O (centres unmarked) [Compound T964-0325]
remaining activity at 2400 µM (read-out: DdlB RA): 92%

N#Cc1ccsc1N [FLD136]
remaining activity at 2500 µM [2]: 100%

Cc1ccccc1C(=O)N1CCCN(C)c2ccccc21 [Compound T599-3543]
remaining activity at 1800 µM [1]: 72%

Cc1ccccc1CS(=O)(=O)N(C)C [Compound Y300-2769]
remaining activity at 2800 µM (read-out: DdlB RA): 87%

Cc1cc2nc(COC(=O)c3ccco3)cc(=O)n2o1 [Compound G265-0750]
remaining activity at 1800 µM (read-out: DdlB RA): 92%

Cc1[nH]c(N)c(C#N)c1C [Compound 8018-8696]
remaining activity at 4400 µM (residual activity of DdlB, fragment library screening, tested concentration 4.4 mM, read-out: DdlB RA): 98%

Reference: paper PMC9718554, “Discovery of a fragment hit compound targeting D-Ala:D-Ala ligase of bacterial peptidoglycan biosynthesis” (Journal of Enzyme Inhibition and Medicinal Chemistry, 2022)
